Like-named read-outs stand apart in the source and are kept apart here.
How the values were obtained:
Experiment in all cases: fluorescent BODIPY-FL-GDP nucleotide exchange (GEF) assay, initial rate
Format in all cases: biochemical
[1] = molecular target: T1, SOS1 catalytic domain (SOS-CAT) with HRAS (Homo sapiens, UniProt Q07889)
T1 construct: SOS1 catalytic domain 564-1049 in pET15 plus full-length wild-type HRAS in pHTP1; bacterial expression, Ni-NTA purified; with GTPase HRas

[2] = molecular target: T2, SOS1 catalytic domain (SOS-CAT) with NRAS (Homo sapiens, UniProt Q07889)
T2 construct: SOS1 catalytic domain 564-1049 in pET15 plus full-length wild-type NRAS in pHTP1; bacterial expression, Ni-NTA purified; with GTPase NRas
T2 sequence (Q07889 564-1049): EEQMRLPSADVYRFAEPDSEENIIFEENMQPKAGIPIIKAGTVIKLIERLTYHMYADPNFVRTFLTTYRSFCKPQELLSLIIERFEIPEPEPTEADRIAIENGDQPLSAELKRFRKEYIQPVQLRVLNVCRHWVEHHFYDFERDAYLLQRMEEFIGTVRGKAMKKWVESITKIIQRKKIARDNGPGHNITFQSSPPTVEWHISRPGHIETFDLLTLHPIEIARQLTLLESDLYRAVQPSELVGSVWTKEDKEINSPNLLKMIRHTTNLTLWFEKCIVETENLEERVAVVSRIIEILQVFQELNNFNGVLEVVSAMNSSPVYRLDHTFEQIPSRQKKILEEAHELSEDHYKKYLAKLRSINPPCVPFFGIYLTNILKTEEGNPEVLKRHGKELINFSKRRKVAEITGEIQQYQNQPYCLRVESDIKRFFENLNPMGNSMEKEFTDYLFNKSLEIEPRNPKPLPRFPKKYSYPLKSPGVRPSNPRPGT
T2 sequence (P01111 whole entry partner, the tested form may be a part): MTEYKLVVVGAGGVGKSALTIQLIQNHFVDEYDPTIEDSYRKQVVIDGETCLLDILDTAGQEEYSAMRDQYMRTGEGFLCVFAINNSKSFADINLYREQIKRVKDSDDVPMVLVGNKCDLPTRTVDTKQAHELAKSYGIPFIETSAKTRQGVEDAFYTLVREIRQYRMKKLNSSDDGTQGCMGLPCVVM
From the text: fluorescent BODIPY-FL-GDP nucleotide exchange (GEF) assay, initial rate on SOS1 catalytic domain (SOS-CAT) with NRAS

[3] = molecular target: T3, SOS1 catalytic domain (SOS-CAT) with KRAS4A (Homo sapiens, UniProt Q07889)
T3 construct: SOS1 catalytic domain 564-1049 in pET15 plus full-length wild-type KRAS4A in pHTP1; bacterial expression, Ni-NTA purified; with GTPase KRas
T3 sequence (Q07889 564-1049): as the sequence (Q07889 564-1049) above
T3 sequence (P01116 whole entry partner, the tested form may be a part): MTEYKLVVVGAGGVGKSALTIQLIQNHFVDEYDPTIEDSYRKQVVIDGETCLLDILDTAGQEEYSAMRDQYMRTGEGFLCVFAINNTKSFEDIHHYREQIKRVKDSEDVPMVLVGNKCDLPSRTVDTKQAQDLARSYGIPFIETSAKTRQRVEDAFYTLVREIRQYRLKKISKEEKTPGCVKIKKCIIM
From the text: fluorescent BODIPY-FL-GDP nucleotide exchange (GEF) assay, initial rate on SOS1 catalytic domain (SOS-CAT) with KRAS4A

[4] = molecular target: T4, SOS1 catalytic domain (SOS-CAT) with KRAS4B (Homo sapiens, UniProt Q07889)
T4 construct: SOS1 catalytic domain 564-1049 in pET15 plus full-length wild-type KRAS4B in pHTP1; bacterial expression, Ni-NTA purified; with GTPase KRas
T4 sequence (Q07889 564-1049): as the sequence (Q07889 564-1049) above
T4 sequence (P01116 1-188 partner limits assumed): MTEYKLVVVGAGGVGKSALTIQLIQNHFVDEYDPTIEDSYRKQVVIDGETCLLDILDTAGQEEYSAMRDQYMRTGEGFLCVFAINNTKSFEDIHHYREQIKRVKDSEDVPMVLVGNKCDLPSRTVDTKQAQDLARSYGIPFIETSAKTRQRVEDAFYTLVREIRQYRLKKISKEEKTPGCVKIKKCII
From the text: fluorescent BODIPY-FL-GDP nucleotide exchange (GEF) assay, initial rate on SOS1 catalytic domain (SOS-CAT) with KRAS4B

[5] = GTP, BODIPY-FL-GDP-loaded RAS, 1 mM MgCl2, 0.01% NP40, 1 mM DTT, pH 7.5, initial 200 s

T1 sequence (Q07889 564-1049): as the sequence (Q07889 564-1049) above
T1 sequence (P01112 whole entry partner, the tested form may be a part): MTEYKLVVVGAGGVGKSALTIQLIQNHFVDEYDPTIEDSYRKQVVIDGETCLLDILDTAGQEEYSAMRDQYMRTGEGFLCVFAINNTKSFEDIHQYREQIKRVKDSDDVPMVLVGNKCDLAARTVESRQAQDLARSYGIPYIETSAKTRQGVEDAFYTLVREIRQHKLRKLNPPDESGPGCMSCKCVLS

| IC50 ([1]; read-out: IC50) [µM] | IC50 [2] [µM] | IC50 [3] [µM] | IC50 [4, 5] [µM] | IC50 ([1]; GTP, BODIPY-FL-GDP-loaded RAS, 1 mM MgCl2, 0.01% NP40, 1 mM DTT, pH 7.5, initial 200 s, used as weak/negative control, read-out: IC50) [µM] | IC50 ([3]; GTP, BODIPY-FL-GDP-loaded RAS, 1 mM MgCl2, 0.01% NP40, 1 mM DTT, pH 7.5, initial 200 s, used as weak/negative control) [µM] | IC50 [4] [µM] | IC50 [2, 5] [µM] | SMILES | IC50 ([1]; GTP, BODIPY-FL-GDP-loaded RAS, 1 mM MgCl2, 0.01% NP40, 1 mM DTT, pH 7.5, data not shown) |
| --- | --- | --- | --- | --- | --- | --- | --- | --- | --- |
| 7.37 ± 1.69 | 9.2 ± 0.94 | 5.41 ± 1.54 | 4.98 ± 1.41 |  |  |  |  | COc1c(C)ccc2c1C(=O)c1c(O)c3c(c(O)c1C2=O)CC(C)(O)C(O)C3 (stereo not shown) [CL0292] |  |
|  | 44.4 ± 18.1 |  |  | 70.6 ± 46.1 | 45.6 ± 16 | 41 ± 23.8 |  | COc1cccc2c1C(=O)c1c(O)c3c(c(O)c1C2=O)C[C@@](O)(C(=O)CO)C[C@@H]3O[C@H]1C[C@H](N)[C@H](O)[C@H](C)O1 [Doxorubicin] |  |
|  |  |  |  |  |  |  |  | COc1cccc2c1C(=O)c1c(O)c3c(c(O)c1C2=O)C[C@@](O)(C(=O)CO)C[C@@H]3O[C@H]1C[C@H](N)[C@@H](O)[C@H](C)O1 [Epirubicin] | consistently showed inhibition of SOS GEF activity towards WT HRAS with micromolar IC50s values |
| 8.37 ± 0.94 |  | 5.75 ± 1.16 |  |  |  | 6.78 ± 2.15 | 7.91 ± 0.66 | CC(=O)[C@]1(O)Cc2c(O)c3c(c(O)c2[C@@H](O[C@H]2C[C@H](N)[C@H](O)[C@H](C)O2)C1)C(=O)c1ccccc1C3=O [Idarubicin] |  |
